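Cells were grown in 96-well plates and exposed to each compound for 48 hours at five concentrations; endpoints were interpolated linearly between bracketing concentrations, or set to the highest concentration if not reached. GI50: concentration for 50% inhibition of growth.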 Active and inactive are the calls of the source. Rule as the data show it: active = GI50 up to about 1.1 µM and inactive = higher.
Tests used:
Test in all cases: DTP human tumour cell line panel, 48 h
[1] = system: UO-31
[2] = system: UACC-62
[3] = system: SF-295
[4] = system: M14
[5] = system: COLO 205
[6] = system: SF-268
[7] = system: NCI-H23
[8] = system: CCRF-CEM
[9] = system: SK-MEL-5
[10] = system: RXF 393
[11] = system: RPMI-8226
[12] = system: U-251
[13] = system: IGROV-1
[14] = system: HL-60
[15] = system: EKVX
[16] = system: Hs-578T
[17] = system: PC-3
[18] = system: HCC 2998
[19] = system: SNB-75

SMILES	GI50 [1]	GI50 [2]	GI50 [3]	GI50 [4]	GI50 [5]	GI50 [6]	GI50 [7]	GI50 [8]	GI50 [9]	GI50 [10]	GI50 [11]	GI50 [12]	GI50 [13]	GI50 [14]	GI50 [15]	GI50 [16]	GI50 [17]	GI50 [18]	GI50 [19]
COC(=O)/C=c1/c2ccccc2n2nc3ccccc3c12	62.2 µM (inactive)	70.8 µM (inactive)	> 100 µM (inactive)	> 100 µM (inactive)	27.6 µM (inactive)	49.9 µM (inactive)	66.5 µM (inactive)	11.4 µM (inactive)	31.6 µM (inactive)	34 µM (inactive)	18.4 µM (inactive)	69 µM (inactive)	> 100 µM (inactive)	45 µM (inactive)	> 100 µM (inactive)	52 µM (inactive)	> 100 µM (inactive)	62.5 µM (inactive)	
COc1ccc(-n2cnc3c(N)nc(N)nc32)cc1	65 µM (inactive)	30.8 µM (inactive)	> 100 µM (inactive)	> 100 µM (inactive)	> 100 µM (inactive)	> 100 µM (inactive)	> 100 µM (inactive)	25.4 µM (inactive)	> 100 µM (inactive)	43.2 µM (inactive)	> 100 µM (inactive)	> 100 µM (inactive)	56.9 µM (inactive)		24.8 µM (inactive)	25.6 µM (inactive)	> 100 µM (inactive)	64.4 µM (inactive)	45.7 µM (inactive)
CC(=O)Nc1cc2cc(NS(=O)(=O)c3ccc(Cl)c(Cl)c3)ccc2oc1=O	46 µM (inactive)	24.4 µM (inactive)	19.6 µM (inactive)	64.1 µM (inactive)	25.5 µM (inactive)	26.2 µM (inactive)	> 100 µM (inactive)	53.8 µM (inactive)	28.1 µM (inactive)	12.5 µM (inactive)	40.3 µM (inactive)	22.6 µM (inactive)	75.9 µM (inactive)	43.5 µM (inactive)	68.5 µM (inactive)	22.4 µM (inactive)	22.4 µM (inactive)	40.5 µM (inactive)	
CCOC(=O)c1c(NC(=O)c2cccs2)sc2c1CCCC2	> 63.1 µM (inactive)	52.1 µM (inactive)	27.3 µM (inactive)	> 100 µM (inactive)	> 100 µM (inactive)	28.1 µM (inactive)	48.3 µM (inactive)	> 100 µM (inactive)	> 100 µM (inactive)	12.7 µM (inactive)	> 100 µM (inactive)	28.1 µM (inactive)	31.3 µM (inactive)	> 100 µM (inactive)	54.8 µM (inactive)	27.6 µM (inactive)	54.8 µM (inactive)	> 100 µM (inactive)	5.68 µM (inactive)
C=C[C@]1(C)CC(=O)C(C(C)C=O)[C@]12C(=O)Oc1cccc(C)c1C2=O (some centres undefined)	15.5 µM (inactive)	16.1 µM (inactive)	15.5 µM (inactive)	16.3 µM (inactive)	17.3 µM (inactive)	24.1 µM (inactive)	17.1 µM (inactive)	2.26 µM (inactive)	13.2 µM (inactive)	13.9 µM (inactive)	8.22 µM (inactive)	14.6 µM (inactive)		4 µM (inactive)	19.4 µM (inactive)	16.3 µM (inactive)	13.3 µM (inactive)	17.7 µM (inactive)	16.4 µM (inactive)
C[C@@H]1C[C@H]2OC(=O)[C@@]3(C)CCC[C@@](C)([C@@H]23)[C@@]1(O)CCc1ccoc1	> 59.3 µM (inactive)	> 62.4 µM (inactive)	> 100 µM (inactive)	> 100 µM (inactive)	> 100 µM (inactive)	> 100 µM (inactive)	> 77.8 µM (inactive)	74.5 µM (inactive)	40.6 µM (inactive)	> 100 µM (inactive)	45.1 µM (inactive)	> 100 µM (inactive)	> 100 µM (inactive)	29.6 µM (inactive)	> 100 µM (inactive)	> 100 µM (inactive)	> 100 µM (inactive)	> 100 µM (inactive)	> 100 µM (inactive)
CCc1nc(Cl)c(Cl)c(Cl)n1	> 100 µM (inactive)	> 100 µM (inactive)	> 100 µM (inactive)	> 100 µM (inactive)		> 100 µM (inactive)	> 100 µM (inactive)	> 100 µM (inactive)	> 100 µM (inactive)	> 100 µM (inactive)	> 100 µM (inactive)	> 100 µM (inactive)	> 100 µM (inactive)	> 100 µM (inactive)	> 100 µM (inactive)	> 100 µM (inactive)	> 100 µM (inactive)	> 100 µM (inactive)	0.242 µM (active)
COc1cc(/C=C2/Oc3c(OC)cccc3C2=O)ccc1O	63 µM (inactive)	> 100 µM (inactive)	54 µM (inactive)	30.8 µM (inactive)	45.8 µM (inactive)	> 100 µM (inactive)	> 100 µM (inactive)	60.1 µM (inactive)	34.8 µM (inactive)	90.2 µM (inactive)	53.2 µM (inactive)	> 100 µM (inactive)	64.6 µM (inactive)	36.6 µM (inactive)	46.9 µM (inactive)	> 100 µM (inactive)	43.9 µM (inactive)	48.4 µM (inactive)	41.8 µM (inactive)
O=C1C(=O)N(c2cccc(C(F)(F)F)c2)C(=S)N1c1ccccc1	25.2 µM (inactive)	14.9 µM (inactive)	31.5 µM (inactive)		16.4 µM (inactive)	43.9 µM (inactive)	25.5 µM (inactive)	35.9 µM (inactive)	17.9 µM (inactive)	27.7 µM (inactive)	36.2 µM (inactive)	31.6 µM (inactive)	22.4 µM (inactive)	32.7 µM (inactive)	30.9 µM (inactive)	27.9 µM (inactive)	30.8 µM (inactive)	42 µM (inactive)	34.5 µM (inactive)
O=C1C(=Cc2ccco2)C(=O)C2CCCCC12 (centres undefined)		> 100 µM (inactive)	> 100 µM (inactive)	> 100 µM (inactive)	> 100 µM (inactive)	> 100 µM (inactive)	> 100 µM (inactive)	> 100 µM (inactive)	> 100 µM (inactive)	> 100 µM (inactive)	> 100 µM (inactive)	> 100 µM (inactive)	> 100 µM (inactive)		> 100 µM (inactive)	> 100 µM (inactive)	> 100 µM (inactive)	> 100 µM (inactive)	> 100 µM (inactive)
Oc1ccc(/C=C/c2ccc3cccc(O)c3n2)cc1O	2.74 µM (inactive)	4.79 µM (inactive)	8.17 µM (inactive)	2.69 µM (inactive)	14.3 µM (inactive)	6.5 µM (inactive)		0.759 µM (active)	3.02 µM (inactive)	3.24 µM (inactive)	0.692 µM (active)	4.2 µM (inactive)	1.44 µM (inactive)	1.96 µM (inactive)	6.11 µM (inactive)	36.1 µM (inactive)	15.6 µM (inactive)	10.8 µM (inactive)	4.74 µM (inactive)
CC(=O)NC1CCC(NC(=O)OC(C)(C)C)C(NC(=O)OC(C)(C)C)C1 (centres undefined)	> 100 µM (inactive)	> 100 µM (inactive)	> 100 µM (inactive)	> 100 µM (inactive)	> 100 µM (inactive)	> 100 µM (inactive)	> 100 µM (inactive)	> 100 µM (inactive)	> 100 µM (inactive)	> 100 µM (inactive)	> 100 µM (inactive)	> 100 µM (inactive)	> 100 µM (inactive)	> 100 µM (inactive)		> 100 µM (inactive)	> 100 µM (inactive)	> 100 µM (inactive)	> 100 µM (inactive)
O=Cc1ccc(Oc2c3ccccc3nc3ccccc23)cc1		0.46 µM (active)	19.6 µM (inactive)	3.44 µM (inactive)	3.42 µM (inactive)	4.5 µM (inactive)		2.71 µM (inactive)	11.5 µM (inactive)	7.98 µM (inactive)	2.39 µM (inactive)	5.27 µM (inactive)		< 0.01 µM (active)	17.7 µM (inactive)	2.53 µM (inactive)	6.34 µM (inactive)	14.8 µM (inactive)	15.5 µM (inactive)
O=[N+]([O-])c1ccc2c(c1)Sc1ccccc1N2	> 100 µM (inactive)		> 100 µM (inactive)		32.9 µM (inactive)	> 100 µM (inactive)	7.35 µM (inactive)	20.7 µM (inactive)	9.33 µM (inactive)	37.8 µM (inactive)	5.79 µM (inactive)	67.3 µM (inactive)	17.7 µM (inactive)	5.11 µM (inactive)	11.4 µM (inactive)	17.2 µM (inactive)	31.9 µM (inactive)	> 100 µM (inactive)	26.6 µM (inactive)
[N-]=[N+]=Nc1c(C=O)c(=O)n(-c2ccccc2)c2ccccc12	16.2 µM (inactive)	15 µM (inactive)	75.5 µM (inactive)	18 µM (inactive)	13.5 µM (inactive)	47.8 µM (inactive)	16.8 µM (inactive)	3.09 µM (inactive)	14.1 µM (inactive)	12.1 µM (inactive)	> 10 µM (inactive)	28.6 µM (inactive)	16.6 µM (inactive)	52.4 µM (inactive)		25.1 µM (inactive)	14.4 µM (inactive)	19.1 µM (inactive)	24.8 µM (inactive)
